Data as given in US20240352010A1, “SUBSTITUTED 1,2,4-THIADIAZOLYL NICOTINAMIDES, SALTS OR N-OXIDES THEREOF AND THEIR USE AS HERBICIDALLY ACTIVE SUBSTANCES” (BayerAktiengesellschaft, priority 2021, published 2024).

What was measured:
Assay type in all cases: in vivo
[1] = tested on: Stellaria media (STEME); test: Herbicidal pre-emergence action, STEME
Source text: (§1) Seeds of mono- and dicotyledonous weed plants were sown in plastic pots (double sowings with one species of mono- and one species of dicotyledonous weed plants per pot), in sandy loam, and covered with soil. The compounds according to the invention, formulated in the form of wettable powders (WP) or as emulsifiable concentrates (EC), were applied to the surface of the covering soil as an aqueous suspension or as an emulsion, with the addition of 0.5% of an additive, at an application rate of 600 litres of water per hectare (converted). Following treatment, the pots were placed in a greenhouse and kept under optimum growth conditions for the test plants. The visual grading of the damage to the test plants is carried out after ca. 3 weeks in comparison to untreated controls (herbicidal effect in percent (%): 100% effect=plants have died, 0% effect=as control plants). Seeds of mono- and dicotyledonous weed plants were sown in plastic pots (double sowings with one species of mono- and one species of dicotyledonous weed plants per pot), in sandy loam, and covered with soil. The compounds according to the invention, formulated in the form of wettable powders (WP) or as emulsifiable concentrates (EC), were applied to the surface of the covering soil as an aqueous suspension or as an emulsion, with the addition of 0.5% of an additive, at an application rate of 600 litres of water per hectare (converted). Following treatment, the pots were placed in a greenhouse and kept under optimum growth conditions for the test plants. The visual grading of the damage to the test plants is carried out after ca. 3 weeks in comparison to untreated controls (herbicidal effect in percent (%): 100% effect=plants have died, 0% effect=as control plants).

[2] = tested on: Stellaria media (STEME); test: Herbicidal post-emergence action, STEME
Source text: (§2) Seeds of mono- and dicotyledonous weed plants were sown in plastic pots (double sowings with one species of mono- and one species of dicotyledonous weed plants per pot), in sandy loam, covered with soil and grown under controlled growth conditions. 2 to 3 weeks after sowing, the test plants were sprayed in the single-leaf stage. The compounds according to the invention, formulated in the form of wettable powders (WP) or as emulsifiable concentrates (EC), were sprayed onto the green plant parts as an aqueous suspension or as an emulsion, with the addition of 0.5% of an additive, at an application rate of 600 litres of water per hectare (converted). The test plants were placed in the greenhouse for ca. 3 weeks under optimum growth conditions, and then the effect of the preparations is assessed visually in comparison with untreated controls (herbicidal effect in percent (%): 100% effect=plants have died, 0% effect=as control plants). […]

[3] = tested on: Veronica persica (VERPE); test: Herbicidal post-emergence action, VERPE
Source text: as §2

[4] = tested on: Matricaria inodora (MATIN); test: Herbicidal pre-emergence action, MATIN
Source text: as §1

[5] = tested on: Poa annua (POAAN); test: Herbicidal pre-emergence action, POAAN; conditions: 1280 g/ha, visual grading after ca. 3 weeks vs untreated controls (Table A7)
Source text: as §1

[6] = tested on: Amaranthus retroflexus (AMARE); test: Herbicidal pre-emergence action, AMARE
Source text: as §1

[7] = tested on: Lolium rigidum (LOLRI); test: Herbicidal pre-emergence action, LOLRI; conditions: 1280 g/ha, visual grading after ca. 3 weeks vs untreated controls (Table A5)
Source text: as §1

[8] = tested on: Amaranthus retroflexus (AMARE); test: Herbicidal post-emergence action, AMARE
Source text: as §2

[9] = tested on: Matricaria inodora (MATIN); test: Herbicidal post-emergence action, MATIN
Source text: as §2

[10] = tested on: Poa annua (POAAN); test: Herbicidal post-emergence action, POAAN
Source text: as §2

[11] = tested on: Kochia scoparia (KCHSC); test: Herbicidal pre-emergence action, KCHSC; conditions: 1280 g/ha, visual grading after ca. 3 weeks vs untreated controls (Table A4)
Source text: as §1

[12] = tested on: Echinochloa crus-galli (ECHCG); test: Herbicidal post-emergence action, ECHCG; conditions: 1280 g/ha, assessed visually after ca. 3 weeks vs untreated controls (Table B3)
Source text: as §2

[13] = tested on: Setaria viridis (SETVI); test: Herbicidal pre-emergence action, SETVI
Source text: as §1

[14] = tested on: Kochia scoparia (KCHSC); test: Herbicidal post-emergence action, KCHSC; conditions: 1280 g/ha, assessed visually after ca. 3 weeks vs untreated controls (Table B4)
Source text: as §2

[15] = tested on: Setaria viridis (SETVI); test: Herbicidal post-emergence action, SETVI; conditions: 1280 g/ha, assessed visually after ca. 3 weeks vs untreated controls (Table B7)
Source text: as §2

[16] = 1280 g/ha, visual grading after ca. 3 weeks vs untreated controls (Table A9)
[17] = 1280 g/ha, assessed visually after ca. 3 weeks vs untreated controls (Table B9)
[18] = 1280 g/ha, assessed visually after ca. 3 weeks vs untreated controls (Table B10)
[19] = 320 g/ha, visual grading after ca. 3 weeks vs untreated controls (Table C3)
[20] = 1280 g/ha, visual grading after ca. 3 weeks vs untreated controls (Table A6)
[21] = 320 g/ha, visual grading after ca. 3 weeks vs untreated controls (Table C6)
[22] = 1280 g/ha, visual grading after ca. 3 weeks vs untreated controls (Table A11)
[23] = 1280 g/ha, assessed visually after ca. 3 weeks vs untreated controls (Table B11)
[24] = 1280 g/ha, assessed visually after ca. 3 weeks vs untreated controls (Table B6)
[25] = 320 g/ha, assessed visually after ca. 3 weeks vs untreated controls (Table D4)
[26] = 1280 g/ha, assessed visually after ca. 3 weeks vs untreated controls (Table B8)
[27] = 1280 g/ha, visual grading after ca. 3 weeks vs untreated controls (Table A8)
[28] = 320 g/ha, assessed visually after ca. 3 weeks vs untreated controls (Table D6)

Cc1nsc(NC(=O)c2c(C3CC3)ccnc2Cl)n1 [Example I-011]
herbicidal effect in percent, STEME [1, 16]: 90%
herbicidal effect in percent, STEME [2, 17]: 90%
herbicidal effect in percent, VERPE [3, 18]: 90%
herbicidal effect in percent, MATIN [4, 19]: 100%
herbicidal effect in percent, MATIN [4, 20]: 100%

COc1nccc(C2CC2)c1C(=O)Nc1ncns1 [Example I-007]
herbicidal effect in percent, STEME [1, 21]: 90%
herbicidal effect in percent, STEME [1, 16]: 90%
herbicidal effect in percent, POAAN [5]: 90%
herbicidal effect in percent, AMARE [6, 22]: 100%

O=C(Nc1nc(Br)ns1)c1c(C2CC2)ccnc1Cl [Example I-010]
herbicidal effect in percent, LOLRI [7]: 90%
herbicidal effect in percent, STEME [1, 16]: 100%
herbicidal effect in percent, AMARE [8, 23]: 90%
herbicidal effect in percent, MATIN ([9]; 320 g/ha, assessed visually after ca. 3 weeks vs untreated controls (Table D2)): 90%
herbicidal effect in percent, MATIN [9, 24]: 90%
herbicidal effect in percent, STEME [2, 25]: 90%
herbicidal effect in percent, STEME [2, 17]: 90%
herbicidal effect in percent, POAAN ([10]; 320 g/ha, assessed visually after ca. 3 weeks vs untreated controls (Table D3)): 90%
herbicidal effect in percent, POAAN [10, 26]: 90%
herbicidal effect in percent, VERPE ([3]; 320 g/ha, assessed visually after ca. 3 weeks vs untreated controls (Table D5)): 90%
herbicidal effect in percent, VERPE [3, 18]: 90%
herbicidal effect in percent, KCHSC [11]: 90%
herbicidal effect in percent, AMARE [6, 22]: 90%
herbicidal effect in percent, ECHCG [12]: 90%
herbicidal effect in percent, MATIN [4, 19]: 90%
herbicidal effect in percent, MATIN [4, 20]: 100%

COc1nccc(C2CC2(F)F)c1C(=O)Nc1ncns1 (stereo not shown) [Example I-001, 4-(2,2-difluorocyclopropyl)-2-methoxy-N-(1,2,4-thiadiazol-5-yl)pyridine-3-carboxamide]
herbicidal effect in percent, MATIN [4, 19]: 90%
herbicidal effect in percent, MATIN [4, 20]: 90%

C=C(C)c1ccnc(Cl)c1C(=O)Nc1ncns1 [Example I-009]
herbicidal effect in percent, STEME [1, 16]: 90%
herbicidal effect in percent, AMARE [8, 23]: 90%
herbicidal effect in percent, SETVI ([13]; 320 g/ha, visual grading after ca. 3 weeks vs untreated controls (Table C5)): 90%
herbicidal effect in percent, SETVI [13, 27]: 100%
herbicidal effect in percent, STEME [2, 17]: 90%
herbicidal effect in percent, MATIN [4, 20]: 100%

O=C(Nc1ncns1)c1c(C2CC2(F)F)ccnc1F (stereo not shown) [Example I-002, 4-(2,2-difluorocyclopropyl)-2-fluoro-N-(1,2,4-thiadiazol-5-yl)pyridine-3-carboxamide]
herbicidal effect in percent, KCHSC [14]: 90%
herbicidal effect in percent, STEME [1, 21]: 90%
herbicidal effect in percent, STEME [1, 16]: 90%
herbicidal effect in percent, AMARE [8, 23]: 90%
herbicidal effect in percent, STEME [2, 17]: 90%
herbicidal effect in percent, VERPE [3, 18]: 90%
herbicidal effect in percent, AMARE [6, 22]: 100%
herbicidal effect in percent, MATIN [4, 19]: 90%
herbicidal effect in percent, MATIN [4, 20]: 100%

CC1CC1c1ccnc(Cl)c1C(=O)Nc1ncns1 (stereo not shown) [Example I-004]
herbicidal effect in percent, KCHSC [14]: 90%
herbicidal effect in percent, STEME [1, 16]: 90%
herbicidal effect in percent, AMARE [8, 28]: 100%
herbicidal effect in percent, AMARE [8, 23]: 100%
herbicidal effect in percent, SETVI [13, 27]: 90%
herbicidal effect in percent, MATIN [9, 24]: 100%
herbicidal effect in percent, STEME [2, 25]: 90%
herbicidal effect in percent, STEME [2, 17]: 100%
herbicidal effect in percent, VERPE [3, 18]: 90%
herbicidal effect in percent, AMARE [6, 22]: 100%
herbicidal effect in percent, SETVI [15]: 100%
herbicidal effect in percent, MATIN [4, 20]: 90%

O=C(Nc1ncns1)c1cnccc1C1CC1 [Example I-008]
herbicidal effect in percent, KCHSC [14]: 90%
herbicidal effect in percent, STEME [1, 21]: 90%
herbicidal effect in percent, STEME [1, 16]: 90%
herbicidal effect in percent, AMARE [8, 28]: 90%
herbicidal effect in percent, AMARE [8, 23]: 100%
herbicidal effect in percent, MATIN [9, 24]: 100%
herbicidal effect in percent, STEME [2, 17]: 100%
herbicidal effect in percent, POAAN [10, 26]: 90%
herbicidal effect in percent, VERPE [3, 18]: 90%
herbicidal effect in percent, KCHSC [11]: 90%
herbicidal effect in percent, POAAN [5]: 90%
herbicidal effect in percent, AMARE ([6]; 320 g/ha, visual grading after ca. 3 weeks vs untreated controls (Table C8)): 90%
herbicidal effect in percent, AMARE [6, 22]: 100%
